Patent US20080227823A1, “AMIDE DERIVATIVES AS CALCIUM CHANNEL BLOCKERS” (priority 2007, published 2008)

Tests used:
[1] = biological target: T1, human α1G T-type channels (Homo sapiens, UniProt O43497); assay: T-type calcium channel block, whole cell patch clamp in HEK cells; format: cell-based; conditions: mainly non-inactivated protocol
T1 construct: expressed in transfected cells; host or cells: HEK 293
Procedure: (§1) T-type calcium channel blocking activity was assayed in human embryonic kidney cells, HEK 293, stably transfected with the T-type calcium channel subunits. Briefly, cells were cultured in Dulbecco's modified eagle medium (DMEM) supplemented with 10% fetal bovine serum, 200 U/ml penicillin and 0.2 mg/ml streptomycin at 37° C. with 5% CO2. At 85% confluency cells were split with 0.25% trypsin/1 mM EDTA and plated at 10% confluency on glass coverslips. At 12 hours the medium was replaced and the cells stably transfected using a standard calcium phosphate protocol and the appropriate calcium channel cDNA's. Fresh DMEM was supplied and the cells transferred to 28° C./5% CO2. Cells were incubated for 1 to 2 days prior to whole cell recording.
(§2) Standard patch-clamp techniques were employed to identify blockers of T-type currents. Briefly, previously described HEK cell lines stably expressing human α1G, α1H and α1I T-type channels were used for all the recordings (passage #: 4-20, 37° C., 5% CO2). Whole cell patch clamp experiments were performed using an Axopatch 200B amplifier (Axon Instruments, Burlingame, Calif.) linked to a personal computer equipped with pCLAMP software. Data were analyzed using Clampfit (Axon Instruments) and SigmaPlot 4.0 (Jandel Scientific). To obtain T-type currents, plastic dishes containing semi-confluent cells were positioned on the stage of a ZEISS AXIOVERT S100 microscope after replacing the culture medium with external solution (see below). Whole-cell patches were obtained using pipettes (borosilicate glass with filament, O.D.: 1.5 mm, I.D.: 0.86 mm, 10 cm length), fabricated on a SUTTER P-97 puller with resistance values of ˜5 MΩ (see below for internal solution).
(§3) T-type currents were reliably obtained by using two voltage protocols: • (1) “non-inactivating”, and • (2) “inactivation”
(§4) In the non-inactivating protocol, the holding potential is set at −110 mV and with a pre-pulse at −100 mV for 1 second prior to the test pulse at −40 mV for 50 ms. In the inactivation protocol, the pre-pulse is at approximately −85 mV for 1 second, which inactivates about 15% of the T-type channels.
(§5) Test compounds were dissolved in external solution, 0.1-0.01% DMSO. After 10 min rest, they were applied by gravity close to the cell using a WPI microfil tubing. The “non-inactivated” pre-pulse was used to examine the resting block of a compound. The “inactivated” protocol was employed to study voltage-dependent block. However, the initial data shown below were mainly obtained using the non-inactivated protocol only. Kd values are shown for various compounds of the invention in Table 4 measured at 1 μM for the drug of interest except for compound 18 which was measured at 200 nM.

[2] = biological target: T2, human α1I T-type channels (Homo sapiens, UniProt Q9P0X4); assay: as above; format: cell-based; conditions: mainly non-inactivated protocol
T2 construct: expressed in transfected cells; host or cells: HEK 293
T2 sequence (Q9P0X4 whole entry): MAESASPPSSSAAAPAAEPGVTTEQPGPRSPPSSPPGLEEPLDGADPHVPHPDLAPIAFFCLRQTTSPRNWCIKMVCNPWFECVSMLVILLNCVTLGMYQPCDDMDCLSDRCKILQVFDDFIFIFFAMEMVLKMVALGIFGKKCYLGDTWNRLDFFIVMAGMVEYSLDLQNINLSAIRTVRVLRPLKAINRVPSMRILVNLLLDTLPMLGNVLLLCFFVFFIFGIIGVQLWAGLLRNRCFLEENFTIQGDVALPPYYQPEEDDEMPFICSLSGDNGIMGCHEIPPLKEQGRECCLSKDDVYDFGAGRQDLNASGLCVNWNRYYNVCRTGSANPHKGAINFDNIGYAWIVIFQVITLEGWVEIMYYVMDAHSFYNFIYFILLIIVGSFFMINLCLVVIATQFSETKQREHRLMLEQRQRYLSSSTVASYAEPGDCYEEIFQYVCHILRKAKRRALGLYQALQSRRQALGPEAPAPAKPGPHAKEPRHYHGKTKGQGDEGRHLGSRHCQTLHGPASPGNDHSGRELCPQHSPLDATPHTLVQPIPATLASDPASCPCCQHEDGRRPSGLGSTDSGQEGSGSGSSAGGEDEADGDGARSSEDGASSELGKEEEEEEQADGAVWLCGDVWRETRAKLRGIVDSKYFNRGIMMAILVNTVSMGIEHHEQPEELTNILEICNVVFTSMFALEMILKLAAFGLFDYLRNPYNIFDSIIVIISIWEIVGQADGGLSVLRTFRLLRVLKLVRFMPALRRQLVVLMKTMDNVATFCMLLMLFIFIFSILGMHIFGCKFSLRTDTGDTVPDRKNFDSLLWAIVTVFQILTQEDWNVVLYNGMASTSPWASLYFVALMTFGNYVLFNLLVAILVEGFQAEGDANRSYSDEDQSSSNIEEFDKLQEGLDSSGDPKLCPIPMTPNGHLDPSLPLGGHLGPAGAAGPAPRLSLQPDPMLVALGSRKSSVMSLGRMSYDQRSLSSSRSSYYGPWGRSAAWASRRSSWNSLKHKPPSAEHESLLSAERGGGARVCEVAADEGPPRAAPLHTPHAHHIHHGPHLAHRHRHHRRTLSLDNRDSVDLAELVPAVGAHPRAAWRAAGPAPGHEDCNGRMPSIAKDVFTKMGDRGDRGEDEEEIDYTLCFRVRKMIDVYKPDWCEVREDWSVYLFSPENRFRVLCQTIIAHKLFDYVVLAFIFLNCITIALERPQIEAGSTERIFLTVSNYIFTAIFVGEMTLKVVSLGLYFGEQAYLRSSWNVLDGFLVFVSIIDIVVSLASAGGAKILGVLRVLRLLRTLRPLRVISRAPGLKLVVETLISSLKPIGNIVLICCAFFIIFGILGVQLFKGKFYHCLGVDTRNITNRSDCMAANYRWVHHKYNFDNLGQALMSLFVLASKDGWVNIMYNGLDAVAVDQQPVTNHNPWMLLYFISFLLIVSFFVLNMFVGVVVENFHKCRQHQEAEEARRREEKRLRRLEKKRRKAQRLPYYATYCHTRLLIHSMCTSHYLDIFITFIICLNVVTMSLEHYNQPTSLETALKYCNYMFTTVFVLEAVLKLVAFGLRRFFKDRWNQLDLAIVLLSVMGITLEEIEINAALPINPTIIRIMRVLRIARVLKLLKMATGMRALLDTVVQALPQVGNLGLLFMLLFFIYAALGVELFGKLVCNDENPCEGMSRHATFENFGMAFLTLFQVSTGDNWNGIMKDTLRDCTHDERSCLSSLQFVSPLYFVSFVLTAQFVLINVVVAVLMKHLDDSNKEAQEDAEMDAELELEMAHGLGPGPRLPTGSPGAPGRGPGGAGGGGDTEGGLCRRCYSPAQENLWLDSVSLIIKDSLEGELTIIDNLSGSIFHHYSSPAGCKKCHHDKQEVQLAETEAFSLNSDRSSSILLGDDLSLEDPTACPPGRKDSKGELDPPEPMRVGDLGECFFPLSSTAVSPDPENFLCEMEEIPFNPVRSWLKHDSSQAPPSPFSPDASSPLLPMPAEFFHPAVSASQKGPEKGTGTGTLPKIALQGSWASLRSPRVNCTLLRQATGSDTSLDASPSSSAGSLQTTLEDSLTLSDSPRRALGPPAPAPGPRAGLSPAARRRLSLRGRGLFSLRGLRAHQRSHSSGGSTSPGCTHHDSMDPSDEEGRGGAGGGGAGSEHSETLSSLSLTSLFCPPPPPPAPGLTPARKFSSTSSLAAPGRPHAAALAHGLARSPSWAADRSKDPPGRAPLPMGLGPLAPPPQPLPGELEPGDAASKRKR
Procedure: as §1, §2, §3, §4, §5

[3] = biological target: T3, human α1H T-type channels (Homo sapiens, UniProt O95180); assay: as above; format: cell-based; conditions: mainly non-inactivated protocol
T3 construct: expressed in transfected cells; host or cells: HEK 293
Procedure: as §1, §2, §3, §4, §5

[4] = tested on: T-type over L-type channels; conditions: cited from earlier work
[5] = spinal nerve ligation model of neuropathic pain in rats; cited from earlier work

T1 sequence (O43497 whole entry): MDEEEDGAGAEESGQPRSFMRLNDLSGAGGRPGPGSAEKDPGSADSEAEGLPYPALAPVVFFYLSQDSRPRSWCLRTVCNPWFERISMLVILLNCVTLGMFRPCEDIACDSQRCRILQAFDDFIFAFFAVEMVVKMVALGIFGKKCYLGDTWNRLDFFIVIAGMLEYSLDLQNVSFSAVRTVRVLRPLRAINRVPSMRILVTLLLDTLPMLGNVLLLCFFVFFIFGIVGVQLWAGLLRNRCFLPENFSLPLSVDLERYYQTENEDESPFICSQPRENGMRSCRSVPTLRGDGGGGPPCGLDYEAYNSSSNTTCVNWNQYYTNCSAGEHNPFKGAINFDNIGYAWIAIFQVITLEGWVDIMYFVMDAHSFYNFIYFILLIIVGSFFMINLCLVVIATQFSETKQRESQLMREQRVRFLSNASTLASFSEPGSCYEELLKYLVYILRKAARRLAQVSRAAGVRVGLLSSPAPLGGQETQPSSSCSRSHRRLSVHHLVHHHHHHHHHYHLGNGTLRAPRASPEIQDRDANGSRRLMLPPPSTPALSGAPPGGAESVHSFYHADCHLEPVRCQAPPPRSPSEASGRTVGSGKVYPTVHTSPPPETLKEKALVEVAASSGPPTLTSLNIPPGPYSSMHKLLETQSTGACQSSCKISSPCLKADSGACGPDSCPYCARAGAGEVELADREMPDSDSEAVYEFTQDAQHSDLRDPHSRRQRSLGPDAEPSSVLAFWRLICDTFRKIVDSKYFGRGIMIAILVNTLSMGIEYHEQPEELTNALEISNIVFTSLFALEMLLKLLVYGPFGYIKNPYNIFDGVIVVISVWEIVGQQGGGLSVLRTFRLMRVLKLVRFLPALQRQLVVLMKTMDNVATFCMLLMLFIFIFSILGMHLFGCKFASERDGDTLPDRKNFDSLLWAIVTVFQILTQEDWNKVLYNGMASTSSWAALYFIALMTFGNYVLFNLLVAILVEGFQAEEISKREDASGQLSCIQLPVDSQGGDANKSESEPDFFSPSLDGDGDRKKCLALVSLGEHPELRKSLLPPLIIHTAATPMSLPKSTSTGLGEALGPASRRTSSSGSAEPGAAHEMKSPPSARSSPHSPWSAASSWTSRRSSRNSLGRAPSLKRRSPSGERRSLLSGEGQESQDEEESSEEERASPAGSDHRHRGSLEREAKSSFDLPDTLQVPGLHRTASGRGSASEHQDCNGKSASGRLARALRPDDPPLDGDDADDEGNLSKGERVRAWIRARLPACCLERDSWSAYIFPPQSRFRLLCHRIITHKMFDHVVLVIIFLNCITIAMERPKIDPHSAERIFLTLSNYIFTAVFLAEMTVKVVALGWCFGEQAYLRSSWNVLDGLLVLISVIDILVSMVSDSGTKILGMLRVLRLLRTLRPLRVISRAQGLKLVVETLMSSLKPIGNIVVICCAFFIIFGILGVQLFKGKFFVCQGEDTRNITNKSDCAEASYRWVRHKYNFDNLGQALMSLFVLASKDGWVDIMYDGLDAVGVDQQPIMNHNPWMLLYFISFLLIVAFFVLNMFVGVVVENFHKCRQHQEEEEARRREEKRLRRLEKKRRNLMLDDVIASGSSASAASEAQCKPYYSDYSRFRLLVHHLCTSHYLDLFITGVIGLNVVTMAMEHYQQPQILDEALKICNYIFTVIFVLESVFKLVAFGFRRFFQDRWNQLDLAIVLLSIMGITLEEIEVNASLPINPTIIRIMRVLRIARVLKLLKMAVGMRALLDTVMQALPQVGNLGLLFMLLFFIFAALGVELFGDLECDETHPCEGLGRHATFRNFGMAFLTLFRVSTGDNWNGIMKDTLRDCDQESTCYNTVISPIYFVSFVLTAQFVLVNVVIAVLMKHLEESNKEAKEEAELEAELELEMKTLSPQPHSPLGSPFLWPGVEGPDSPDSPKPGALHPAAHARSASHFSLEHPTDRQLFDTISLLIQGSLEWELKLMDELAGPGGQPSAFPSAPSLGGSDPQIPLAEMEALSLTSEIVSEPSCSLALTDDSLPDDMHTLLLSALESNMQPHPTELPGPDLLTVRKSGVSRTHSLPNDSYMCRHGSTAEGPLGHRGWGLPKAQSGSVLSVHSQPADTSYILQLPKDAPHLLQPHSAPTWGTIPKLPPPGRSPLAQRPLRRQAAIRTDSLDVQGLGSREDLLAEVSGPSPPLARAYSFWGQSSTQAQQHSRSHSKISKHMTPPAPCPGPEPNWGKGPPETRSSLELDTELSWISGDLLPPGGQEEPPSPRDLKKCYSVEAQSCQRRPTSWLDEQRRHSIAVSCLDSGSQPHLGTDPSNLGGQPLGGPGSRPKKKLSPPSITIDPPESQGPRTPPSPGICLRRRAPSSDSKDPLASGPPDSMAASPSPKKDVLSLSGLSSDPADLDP

SMILES	Kd ([1]; measured at 1 μM drug)	Kd ([2]; measured at 1 μM drug)	Kd ([3]; measured at 1 μM drug)	also measured
O=C(/C=C/c1ccc(F)c(Br)c1)NC1(C(=O)NCCc2c[nH]c3ccccc23)CCNCC1 [Compound 2, (E)-N-(2-(1H-indol-3-yl)ethyl)-4-(3-(3-bromo-4-fluorophenyl)acrylamido)piperidine-4-carboxamide]	30 nM	30 nM	410 nM	–
O=C(/C=C/c1ccc(F)c(Br)c1)N[C@H](C(=O)NCCc1c[nH]c2ccc(F)cc12)c1ccccc1 [Compound 17, (S,E)-3-(3-bromo-4-fluorophenyl)-N-(2-(2-(5-fluoro-1H-indol-3-yl)ethylamino)-2-oxo-1-phenylethyl)acrylamide]	100 nM	170 nM	940 nM	–
O=C(/C=C/c1ccc(F)c(Br)c1)N[C@@H](C(=O)NCCc1c[nH]c2ccc(F)cc12)c1ccccc1 [Compound 18, (R,E)-3-(3-bromo-4-fluorophenyl)-N-(2-(2-(5-fluoro-1H-indol-3-yl)ethylamino)-2-oxo-1-phenylethyl)acrylamide]	–	–	–	Kd ([1]; measured at 200 nM drug): 70 nM; Kd ([2]; measured at 200 nM drug): 380 nM; Kd ([3]; measured at 200 nM drug): 690 nM
CN1CCC(NC(=O)/C=C/c2ccc(F)c(Br)c2)(C(=O)NCCc2c[nH]c3ccc(F)cc23)CC1 [Compound 22]	100 nM	330 nM	490 nM	–
COC(=O)N1CCC(NC(=O)/C=C/c2ccc(F)c(Br)c2)(C(=O)NCCc2c[nH]c3ccc(F)cc23)CC1 [Compound 23, (E)-methyl 4-(3-(3-bromo-4-fluorophenyl)acrylamido)-4-(2-(5-fluoro-1H-indol-3-yl)ethylcarbamoyl)piperidine-1-carboxylate]	790 nM	870 nM	–	–
NCC(=O)N1CCC(NC(=O)/C=C/c2ccc(F)c(Br)c2)(C(=O)NCCc2c[nH]c3ccc(F)cc23)CC1 [Compound 24, (E)-1-(2-aminoacetyl)-4-(3-(3-bromo-4-fluorophenyl)acrylamido)-N-(2-(5-fluoro-1H-indol-3-yl)ethyl)piperidine-4-carboxamide]	180 nM	440 nM	1450 nM	–
O=C(/C=C/c1ccc(F)c(Br)c1)NC1(C(=O)NCCc2c[nH]c3ccc(F)cc23)CCN(C(=O)C(F)(F)F)CC1 [Compound 27, (E)-4-(3-(3-bromo-4-fluorophenyl)acrylamido)-N-(2-(5-fluoro-1H-indol-3-yl)ethyl)-1-(2,2,2-trifluoroacetyl) piperidine-4-carboxamide]	150 nM	210 nM	840 nM	–
O=C(/C=C/c1ccc(F)cc1)NC1(C(=O)Nc2cc(C(F)(F)F)cc(C(F)(F)F)c2)CCNCC1 [Compound 32, (E)-N-(3,5-bis(trifluoromethyl)phenyl)-4-(3-(4-fluorophenyl)acrylamido)piperidine-4-carboxamide]	50 nM	50 nM	420 nM	–
COCC(=O)O[C@]1(CCN(C)CCCc2nc3ccccc3[nH]2)CCc2cc(F)ccc2[C@@H]1C(C)C [Mibefradil]	–	–	–	selective for T-type over L-type channels [4]: 10-30 fold; anti-hyperalgesic activity [5]: anti-hyperalgesic activity
CCC1(C)CC(=O)NC1=O (centres unmarked) [ethosuximide]	–	–	–	anti-hyperalgesic activity [5]: anti-hyperalgesic activity

Second part, led by results:

Kd ([1]; measured at 1 μM drug)	Kd ([2]; measured at 1 μM drug)	Kd ([3]; measured at 1 μM drug)	SMILES	also measured
220 nM	180 nM	470 nM	O=C(/C=C/c1ccc(F)c(Br)c1)NC1(C(=O)NCCc2c[nH]c3ccc(F)cc23)CCNCC1 [Compound 1]	–
130 nM	110 nM	137000 nM	O=C(/C=C/c1ccc(F)c(F)c1)NC1(C(=O)NCCc2c[nH]c3ccc(F)cc23)CCNCC1 [Compound 7, (E)-4-(3-(3,4-difluorophenyl)acrylamido)-N-(2-(5-fluoro-1H-indol-3-yl)ethyl)piperidine-4-carboxamide]	–
120 nM	280 nM	1800 nM	O=C(/C=C/c1ccc(F)c(Br)c1)NC1(C(=O)NCCc2c[nH]c3ccc(F)cc23)CCCCC1 [Compound 12, (E)-1-(3-(3-bromo-4-fluorophenyl)acrylamido)-N-(2-(5-fluoro-1H-indol-3-yl)ethyl)cyclohexanecarboxamide]	–
140 nM	390 nM	1790 nM	O=C(/C=C/c1ccc(F)c(Br)c1)NC1(C(=O)NCCc2c[nH]c3ccc(F)cc23)CCCC1 [Compound 13, (E)-1-(3-(3-bromo-4-fluorophenyl)acrylamido)-N-(2-(5-fluoro-1H-indol-3-yl)ethyl)cyclopentanecarboxamide]	–
290 nM	460 nM	12000 nM	O=C(/C=C/c1ccc(F)c(Br)c1)NC1(C(=O)NCCc2c[nH]c3ccc(F)cc23)CC1 [Compound 14, (E)-1-(3-(3-bromo-4-fluorophenyl)acrylamido)-N-(2-(5-fluoro-1H-indol-3-yl)ethyl)cyclopropanecarboxamide]	–
